According to patent US20080015194A1, “METHODS AND COMPOSITIONS OF TARGETED DRUG DEVELOPMENT” (priority 2006, published 2008):
Like-named read-outs stand apart in the source and are kept apart here.

Columns and labels:
[1] = target: T1, EGFR (Rattus norvegicus, UniProt G3V6K6); assay: Inhibition of [125I]EGF binding to EGFR, radioligand filtration assay (NovaScreen); conditions: rat liver membranes
T1 construct: Receptor source was rat liver membranes; tissue NovaScreen BioSciences; host or cells: rat liver membranes
T1 sequence (G3V6K6 25-1209): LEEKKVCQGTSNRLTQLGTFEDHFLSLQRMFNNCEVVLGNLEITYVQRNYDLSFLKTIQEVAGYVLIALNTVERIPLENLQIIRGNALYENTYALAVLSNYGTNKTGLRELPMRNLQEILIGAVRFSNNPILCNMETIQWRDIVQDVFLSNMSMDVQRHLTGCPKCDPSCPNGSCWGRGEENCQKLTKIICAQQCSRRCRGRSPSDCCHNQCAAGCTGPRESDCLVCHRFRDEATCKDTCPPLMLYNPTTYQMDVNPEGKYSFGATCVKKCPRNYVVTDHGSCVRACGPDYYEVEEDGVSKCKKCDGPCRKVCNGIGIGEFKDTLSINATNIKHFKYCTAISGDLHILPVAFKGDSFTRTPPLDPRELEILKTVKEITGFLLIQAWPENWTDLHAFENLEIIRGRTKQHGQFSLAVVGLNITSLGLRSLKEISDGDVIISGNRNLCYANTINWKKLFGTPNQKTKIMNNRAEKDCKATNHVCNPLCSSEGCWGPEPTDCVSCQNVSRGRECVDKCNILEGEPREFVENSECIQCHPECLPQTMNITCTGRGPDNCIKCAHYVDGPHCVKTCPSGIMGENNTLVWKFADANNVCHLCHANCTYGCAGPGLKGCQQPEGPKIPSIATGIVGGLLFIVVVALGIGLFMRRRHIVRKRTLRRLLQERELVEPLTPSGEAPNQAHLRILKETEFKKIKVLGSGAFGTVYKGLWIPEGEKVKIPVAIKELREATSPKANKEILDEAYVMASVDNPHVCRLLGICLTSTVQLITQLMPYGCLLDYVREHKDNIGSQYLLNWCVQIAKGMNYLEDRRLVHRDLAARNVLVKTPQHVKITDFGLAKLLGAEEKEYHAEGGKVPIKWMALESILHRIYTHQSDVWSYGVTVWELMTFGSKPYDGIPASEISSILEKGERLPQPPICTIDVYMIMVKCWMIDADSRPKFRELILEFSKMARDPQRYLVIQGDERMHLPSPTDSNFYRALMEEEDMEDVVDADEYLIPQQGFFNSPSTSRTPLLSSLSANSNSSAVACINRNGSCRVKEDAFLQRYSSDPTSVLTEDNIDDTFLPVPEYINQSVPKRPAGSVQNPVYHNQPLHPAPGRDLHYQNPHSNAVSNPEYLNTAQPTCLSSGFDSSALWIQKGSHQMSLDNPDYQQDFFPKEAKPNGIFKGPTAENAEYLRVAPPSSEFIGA
Protocol: Identified compounds, representing various pharmacaphore models, were tested for ability to inhibit EGFR at 25 μM.
AD4-compounds were identified using pharmacophore models (see Example 4) and then were docked with the binding site of EGFR (SEQ ID NO: 1) that is recognized by defined CDRs of cetuximab. The inhibition of epidermal growth factor binding by AD4-compounds was then determined (NovaScreen BioSciences, Hanover, Md.). Inhibition of EGF binding was determined at 25 μM concentration.
Receptor source was rat liver membranes. The radioligand was [^125I]EGF ([…]) at a final ligand concentration of 0.36 nM. A non-specific determinant was used as EGF—[100 nM]. The reference compound and positive control was EGF. Reactions were carried out in 10 mM HEPES (pH 7.4) containing 0.1% BSA at 25 °C for 60 minutes. The reaction was terminated by rapid vacuum filtration onto glass fiber filters. Radioactivity trapped onto the filters was determined and compared to control values to ascertain any interactions of test compounds with the EGF binding site. The EGF inhibitor assays were modified from, for example, Mukku (1984) J. Biol. Chem. 259, 6543-6546; Duh et al. (1990) World J. Surgery 14, 410-418; Lokeshwar et al. (1989) J. Biol. Chem. 264(32), 19318-19326.

[2] = target: EGF receptor of rat liver membranes (rat); assay: radioligand binding of [125I]EGF to rat liver membranes, filtration (NovaScreen)
[3] = 25 μM compound, [125I]EGF 0.36 nM
[4] = 25 μM compound, [125I]EGF 0.36 nM, read-out: inhibition of binding of EGF to EGFR
[5] = inhibition of [125I]EGF binding at 25 μM, read-out: EGFR INHIBITION

Compound | inhibition at 25 µM [1, 5] | other results
O=C(O)Cn1nnc(-c2ccc(OCc3ccccc3)cc2)n1 [AD4-1020, {5-[4-(benzyloxy)phenyl]-2H-tetrazol-2-yl}acetic acid] | 47.8% | inhibition of binding of EGF to EGFR [1, 3]: 48%; inhibition at 25 µM [1, 4]: 47.8%
O=C(O)CCc1ccc(-c2ccc(Cl)cc2)n1CCC(=O)O [AD4-1027] | 38.6% | inhibition at 25 µM [1, 4]: 39%
Cc1cccc(NC(=O)C(CC(=O)O)NCc2ccccc2)c1 (stereo not shown) [AD4-1155] | 30.1% | –
COc1cc(/C=N/NC(=O)c2ccc(O)cc2O)ccc1O [AD4-1057] | 30.1% | –
O=C(O)C[C@H](NCc1cccnc1)C(=O)Nc1ccc(Cl)cc1 [AD4-1025, N^1-(4-chlorophenyl)-N^2-(3-pyridinylmethyl)-alpha-asparagine] | 75.7% | inhibition of binding of EGF to EGFR [1, 3]: 76%; inhibition at 25 µM [1, 4]: 75.7%
CN(C1=NC(=O)C(CC(=O)O)S1)c1ccc(O)cc1 (stereo not shown) [AD4-1038, {2-[(4-Hydroxy-phenyl)-methyl-amino]-4-oxo-4,5-dihydro-thiazol-5-yl}-acetic acid] | 70.9% | inhibition at 25 µM [1, 4]: 70.7%
Cc1ccc(OCC(=O)Nc2ccc(O)cc2C(=O)O)c(C)c1 [AD4-1132, 2-{[(2,4-dimethylphenoxy)acetyl]amino}-5-hydroxybenzoic acid] | 59.6% | inhibition at 25 µM [1, 4]: 59.6%
Cc1ccc(C(=O)Nc2ccc(C(=O)NCCCC(=O)O)cc2)o1 [AD4-1139] | 39% | –
O=C(CSc1ccccc1)Nc1ccc(O)c(C(=O)O)c1 [AD4-1178] | 34.6% | –
Cc1ccc(Cl)cc1NC(=O)CC(C(=O)O)N1CCNCC1 (stereo not shown) [AD4-1165] | 47.2% | –
Cn1c(=O)c2c(nc(SCCCO)n2Cc2ccccc2)n(C)c1=O [AD4-1060] | 30.2% | –
CCCC(NC(=O)CCc1c(C)c2ccc(O)cc2oc1=O)C(=O)O (stereo not shown) [AD4-1047] | 32.7% | –
Oc1ccc(/C=N/N=C/c2ccc(O)cc2O)c(O)c1 [AD4-1018] | 36.2% | –
CCOc1cc(C=C2C(=O)NC(=O)NC2=O)ccc1CC(=O)O [AD4-1121] | 35% | –
COc1cccc(OCC(=O)Nc2ccccc2C(=O)O)c1 [AD4-1030] | 37.7% | inhibition at 25 µM [1, 4]: 38%
CC1=C(C(=O)Nc2cccc(C)c2)C(c2ccc(O)cc2)NC(=O)N1 (stereo not shown) [AD4-1010, 4-(4-hydroxyphenyl)-6-methyl-N-(3-methylphenyl)-2-oxo-1,2,3,4-tetrahydro-5pyrimidinecarboxamide] | 39.4% | inhibition at 25 µM [1, 4]: 39.4%
CCOc1ccc(/C(C)=N/N=C2\NC(=O)C(CC(=O)O)S2)cc1 (stereo not shown) [AD4-1016] | 37.8% | –
NC(=O)C1CCN(C2CC(=O)N(c3ccc(C(=O)O)cc3)C2=O)CC1 (stereo not shown) [AD4-1108] | 33.1% | –
CN(Cc1ccccc1)S(=O)(=O)c1ccc(O)c(C(=O)O)c1 [AD4-1153] | 34% | –
CCNc1nc(N)nc(Oc2ccc(OCc3ccccc3)nn2)n1 [AD4-1176] | 34% | –
O=C(O)COc1ccc(C(=O)NCc2ccccc2)cc1 [AD4-1150] | 43.1% | –

Compound | inhibition at 25 µM [1, 5] | other results
O=C(O)c1ccccc1SC1CC(=O)N(c2ccc(O)cc2)C1=O (stereo not shown) [AD4-1141] | 46.7% | –
[125I]EGF (epidermal growth factor radioligand) | – | Bmax (receptor number) (fmol/mg tissue (wet weight)) [2]: 43; Kd [2]: 1.04 nM
Cc1ccc(OCCn2c(SCCO)nc3c(N)ncnc32)cc1 [AD4-1128] | 38% | –
O=C(N/N=C/c1cc(Cl)ccc1O)c1ccc(O)cc1 [AD4-1017] | 35% | –
O=C(O)CC(NCc1ccco1)C(=O)Nc1ccc2ccccc2c1 (stereo not shown) [AD4-1149] | 33.6% | –
Cc1cccc(NC(=O)CC(NCCN2CCOCC2)C(=O)O)c1 (stereo not shown) [AD4-1166] | 31.2% | –
O=C(O)Cn1nnc(-c2ccc(OCc3c(F)cccc3Cl)cc2)n1 [AD4-1175] | 35.1% | –
O=C(CC(NCC1CCCO1)C(=O)O)Nc1cccc(Cl)c1 (stereo not shown) [AD4-1039] | 31.7% | inhibition at 25 µM [1, 4]: 32%
O=C(O)CC(NCc1ccccc1)C(=O)Nc1ccc(Cl)cc1 (stereo not shown) [AD4-1171] | 47.2% | –
O=C(O)CCCN1C(=O)/C(=C/c2cccc(O)c2)SC1=S [AD4-1109] | 36.5% | –
CC(Oc1ccc(C(=O)NCCc2ccccc2)cc1)C(=O)O (stereo not shown) [AD4-1021] | 43.4% | inhibition at 25 µM [1, 4]: 43%
O=C(NC(=S)Nc1ccc(O)c(C(=O)O)c1)c1ccccc1 [AD4-1123] | 34.1% | –
CCN(CC)c1ccc(NC(=O)C(CC(=O)O)NCc2ccccc2)cc1 (stereo not shown) [AD4-1167] | 30.6% | –
O=C(CC1SC(Nc2ccc(O)cc2)=NC1=O)Nc1ccc(Br)cc1 (stereo not shown) [AD4-1140] | 36.5% | –
O=C(O)COc1ccc(-c2nnn(CC(=O)O)n2)cc1 [AD4-1169] | 31.4% | –
NC(=O)CCC(Nc1ncnc2ccccc12)C(=O)O (stereo not shown) [AD4-1148] | 43.2% | –
COC(=O)c1cc(NC(=O)CSc2nc(C)cc(=O)[nH]2)cc(C(=O)OC)c1 [AD4-1147] | 43.4% | –
O=C(O)Cn1nnc(-c2ccc(OCc3cccc(C(F)(F)F)c3)cc2)n1 [AD4-1164] | 33.3% | –
Cc1cc(C)c(OCC(=O)Nc2cc(O)ccc2C(=O)O)cc1C [AD4-1022] | 38.6% | inhibition at 25 µM [1, 4]: 39%
Oc1ccc(-c2csc(NCc3ccco3)n2)c(O)c1 [AD4-1133] | 37.3% | –
O=C1Nc2ccccc2C1(O)C/C(=N/O)c1ccc2c(c1)OCCO2 (stereo not shown) [AD4-1124] | 33.1% | –
